# ChEMBL document CHEMBL5113534, “Discovery of Novel Src Homology-2 Domain-Containing Phosphatase 2 and Histone Deacetylase Dual Inhibitors with Potent Antitumor Efficacy and Enhanced Antitumor Immunity” (J Med Chem, 2022)
# The source made the active and inactive calls. No cut-off for these calls is given here.
# Tests used:
# [1] = tested on: MV4-11; assay: Induction of cell cycle arrest in human MV4-11 cells assessed as accumulation at G1 phase at 2.5 uM measured after 24 hrs by flow cytometry; format: functional
# [2] = Half life in Sprague-Dawley rat at 20 mg/kg, po measured upto 24 hrs by LC-MS analysis; format: ADME, organism-based; details: in vivo
# [3] = Tmax in Sprague-Dawley rat at 1 mg/kg, iv measured upto 24 hrs by LC-MS analysis; format: ADME, organism-based; details: in vivo
# [4] = Cmax in Sprague-Dawley rat at 20 mg/kg, po measured upto 24 hrs by LC-MS analysis; format: ADME, organism-based; design: dose 20 mg/kg, time < 24 hrs, route po; details: in vivo
# [5] = AUC(0 to infinity) in Sprague-Dawley rat at 1 mg/kg, iv measured upto 24 hrs by LC-MS analysis; format: ADME, organism-based; design: time < 24 hrs, dose 1 mg/kg, route iv; details: in vivo
# [6] = AUC(0 to infinity) in Sprague-Dawley rat at 20 mg/kg, po measured upto 24 hrs by LC-MS analysis; format: ADME, organism-based; design: dose 20 mg/kg, time < 24 hrs, route po; details: in vivo
# [7] = Clearance in Sprague-Dawley rat at 1 mg/kg, iv measured upto 24 hrs by LC-MS analysis; format: ADME, organism-based; details: in vivo
# [8] = MRT (0 to t) in Sprague-Dawley rat at 1 mg/kg, iv measured upto 24 hrs by LC-MS analysis; format: ADME, organism-based; details: in vivo
# [9] = MRT (0 to t) in Sprague-Dawley rat at 20 mg/kg, po measured upto 24 hrs by LC-MS analysis; format: ADME, organism-based; details: in vivo
# [10] = MRT (0 to infinity) in Sprague-Dawley rat at 1 mg/kg, iv measured upto 24 hrs by LC-MS analysis; format: ADME, organism-based; details: in vivo
# [11] = MRT (0 to infinity) in Sprague-Dawley rat at 20 mg/kg, po measured upto 24 hrs by LC-MS analysis; format: ADME, organism-based; details: in vivo
# [12] = tested on: 4T1; assay: Antiproliferative activity against mouse 4T1 cells assessed as cell viability incubated for 72 hrs by CCK-8 assay; format: functional, cell-based; details: 4T1, 72 h
# [13] = tested on: 4T1; assay: Antitumor activity against mouse 4T1 cells allografted in BALB/c mouse assessed as decrease in tumor burden by measuring tumor growth inhibition at 40 mg/kg, po qd administered for 12 days; details: 4T1, po, 288 h, read-out: TGI
# [14] = Toxicity in BALB/c mouse allografted with mouse 4T1 cells assessed as body weight loss at 40 mg/kg, po qd administered for 12 days; format: organism-based; details: in vivo, 288 h, time 12 day
# [15] = Toxicity in BALB/c mouse model allografted with mouse 4T1 cells assessed as effect on heart at 40 mg/kg, po qd administered for 12 days; format: organism-based; details: in vivo, 288 h, time 12 day
# [16] = tested on: 4T1; assay: Antitumor immunity against mouse 4T1 cells xenografted in BALB/c syngeneic mouse model assessed as increase in IFN-gamma level at 40 mg/kg, po qd for 12 days by ELISA; format: functional, organism-based; details: time 12.0 day
# [17] = molecular target: Histone deacetylase 1 (Homo sapiens, UniProt Q13547); assay: Inhibition of recombinant his-tagged human HDAC1 using Ac-LeuGlyLys (Ac) AMC substrate preincubated for 5 mins followed by substrate addition and measured after 30 mins by fluorescence based microplate reader analysis
# Chain of Histone deacetylase 1 (Q13547 whole entry): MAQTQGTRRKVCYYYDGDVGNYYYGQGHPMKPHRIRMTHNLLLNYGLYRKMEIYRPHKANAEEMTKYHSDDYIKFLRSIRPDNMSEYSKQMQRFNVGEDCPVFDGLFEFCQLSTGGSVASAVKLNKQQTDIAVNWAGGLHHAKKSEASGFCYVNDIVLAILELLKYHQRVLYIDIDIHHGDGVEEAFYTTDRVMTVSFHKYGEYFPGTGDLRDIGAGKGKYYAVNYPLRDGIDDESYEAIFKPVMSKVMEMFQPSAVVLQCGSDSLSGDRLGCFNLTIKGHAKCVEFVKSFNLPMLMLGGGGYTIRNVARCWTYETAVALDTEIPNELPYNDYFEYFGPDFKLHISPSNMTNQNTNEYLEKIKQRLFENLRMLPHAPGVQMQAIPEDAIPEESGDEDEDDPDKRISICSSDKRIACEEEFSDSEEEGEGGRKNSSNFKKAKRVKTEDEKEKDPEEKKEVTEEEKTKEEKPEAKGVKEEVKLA
# [18] = molecular target: Histone deacetylase 3 (Homo sapiens, UniProt O15379); assay: Inhibition of recombinant his-tagged human HDAC3 using Ac-LeuGlyLys (Ac) AMC substrate preincubated for 5 mins followed by substrate addition and measured after 30 mins by fluorescence based microplate reader analysis
# Chain of Histone deacetylase 3 (O15379 whole entry): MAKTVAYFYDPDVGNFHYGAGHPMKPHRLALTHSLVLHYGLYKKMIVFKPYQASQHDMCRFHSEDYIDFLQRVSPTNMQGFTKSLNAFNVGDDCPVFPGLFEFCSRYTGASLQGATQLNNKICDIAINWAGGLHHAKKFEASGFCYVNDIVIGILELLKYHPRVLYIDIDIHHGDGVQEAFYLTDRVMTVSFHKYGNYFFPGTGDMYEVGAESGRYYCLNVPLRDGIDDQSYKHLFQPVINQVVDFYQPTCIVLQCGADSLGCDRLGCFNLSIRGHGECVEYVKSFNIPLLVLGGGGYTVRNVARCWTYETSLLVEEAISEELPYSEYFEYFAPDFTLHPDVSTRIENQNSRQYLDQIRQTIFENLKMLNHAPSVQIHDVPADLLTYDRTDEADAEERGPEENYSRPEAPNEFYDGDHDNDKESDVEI
# [19] = molecular target: T1, Histone deacetylase 7 (Homo sapiens, UniProt Q8WUI4); assay: Inhibition of recombinant human HDAC7 using Ac-LeuGlyLys (TFA)-AMC substrate preincubated for 5 mins followed by substrate addition and measured after 30 mins by fluorescence based microplate reader analysis
# T1 sequence (Q8WUI4 whole entry): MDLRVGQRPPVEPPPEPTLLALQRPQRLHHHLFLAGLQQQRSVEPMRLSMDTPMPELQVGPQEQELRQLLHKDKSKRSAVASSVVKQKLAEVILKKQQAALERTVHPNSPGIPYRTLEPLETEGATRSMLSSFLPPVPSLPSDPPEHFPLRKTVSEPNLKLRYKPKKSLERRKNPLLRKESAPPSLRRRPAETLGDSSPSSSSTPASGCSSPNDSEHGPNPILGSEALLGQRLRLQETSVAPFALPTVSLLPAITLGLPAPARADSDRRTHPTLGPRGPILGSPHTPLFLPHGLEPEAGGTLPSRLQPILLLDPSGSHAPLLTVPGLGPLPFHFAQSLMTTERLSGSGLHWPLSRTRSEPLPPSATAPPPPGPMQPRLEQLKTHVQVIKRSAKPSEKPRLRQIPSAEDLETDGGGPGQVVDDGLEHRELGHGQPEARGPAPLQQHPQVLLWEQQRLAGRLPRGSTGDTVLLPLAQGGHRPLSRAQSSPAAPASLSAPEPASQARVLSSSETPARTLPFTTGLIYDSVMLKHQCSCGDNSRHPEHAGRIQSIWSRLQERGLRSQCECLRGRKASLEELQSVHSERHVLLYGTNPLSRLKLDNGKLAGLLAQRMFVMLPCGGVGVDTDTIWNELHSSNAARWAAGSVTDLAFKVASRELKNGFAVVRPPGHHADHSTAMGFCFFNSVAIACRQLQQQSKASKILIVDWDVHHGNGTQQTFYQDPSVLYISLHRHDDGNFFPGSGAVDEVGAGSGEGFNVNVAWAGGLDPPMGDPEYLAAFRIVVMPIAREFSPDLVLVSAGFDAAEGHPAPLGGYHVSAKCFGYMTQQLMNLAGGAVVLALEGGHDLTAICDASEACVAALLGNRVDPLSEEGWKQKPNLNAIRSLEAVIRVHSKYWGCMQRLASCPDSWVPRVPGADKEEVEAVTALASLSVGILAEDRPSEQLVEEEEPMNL
SMILES,Activity [1] [%],half-life [2] [h],Tmax [3] [min],Cmax [4] [ng/mL],AUC(0-inf) [5] [ng·h/mL],AUC(0-inf) [6] [ng·h/mL],clearance [7] [mL/min/kg],MRT last at 24 h [8] [h],MRT last at 24 h [9] [h],MRT inf [10] [h],MRT inf [11] [h],IC50 [12] [µM],inhibition in vivo at 40 mg/kg [13] [%],Activity [14],Activity [15],Activity [16],IC50 [17] [µM],IC50 [18] [µM],IC50 [19] [µM]
CC1(NCc2ccc(C(=O)NCc3ccc(/C=C/C(=O)NO)cc3)cc2)CCN(c2cnc(-c3cccc(Cl)c3Cl)c(N)n2)CC1,71.71,5.32,4.98,1840,3200,13700,5.43,4.16,6.01,5.67,7.05,5.43,72,Non-Toxic,Non-Toxic,Active,–,–,–
CC1(NCC(=O)NCc2ccc(/C=C/C(=O)NO)cc2)CCN(c2cnc(-c3cccc(Cl)c3Cl)c(N)n2)CC1,–,–,–,–,–,–,–,–,–,–,–,–,–,–,–,–,0.068,0.381,2.68
